Data set [1] concerns Mycobacterium tuberculosis H37Rv. Kind of data set: Mouse tuberculosis infection model, CFU counts in the lungs after treatment. Format: in vivo. As to conditions: female Swiss mice infected i.v. with H37Rv; oral once daily 5 times/week for 4 weeks (day 12-37); necropsy day 41; BDQ 3 mg/kg, Q203 or Cpd X 20 mg/kg, PZA 150 mg/kg; cut off 1.10 = below detectable level.
Data set [2] is classed as physicochemical. On the procedure:
All formulations prepared in 20% HP-β-CD, and used for 5 treatments (one week).
All formulations were solutions and stored at 4° C. during the study.
Stability of BDQ and Q203 in formulation was previously tested, for PZA and Cpd X the stability was tested after one week and found acceptable for both compounds

The subject of a further data set is M. tuberculosis. As to conditions: cited from earlier work.
A further data set relates to M. tuberculosis H37Rv. As to conditions: strain M. tuberculosis H37Rv, inside macrophages; cited from earlier work.

Molecules are shown by their SMILES. Values after ≈ are worked out from the molar mass of the structure shown.

In the case of `COc1nc2ccc(Br)cc2cc1[C@@H](c1ccccc1)[C@@](O)(CCN(C)C)c1cccc2ccccc12` [BDQ, Bedaquiline], the “mean log10 (CFUs in the lungs)” value in data set [1] turned out to be 4.46 log10.
Take `NC(=O)c1cnccn1` [PZA, Pyrazinamide]: the stability in formulation result in data set [2] was “acceptable”. For the same compound, the “mean log10 (CFUs in the lungs)” value in data set [1] stood at 3.47 log10.
`CCc1nc2ccc(Cl)cn2c1C(=O)NCc1ccc(N2CC3(CCN(c4ccc(OC(F)(F)F)cc4)CC3)C2)cc1` [Cpd X]: the stability in formulation entry in data set [2] was “acceptable”. For the same compound, the “mean log10 (CFUs in the lungs)” value in data set [1] was 4.75 log10.
In the case of `CCc1nc2ccc(Cl)cn2c1C(=O)NCc1ccc(N2CCC(c3ccc(OC(F)(F)F)cc3)CC2)cc1` [Q203], the “activity against replicating and non-replicating bacteria” value with M. tuberculosis is given as “highly active”. The MIC50 in the data set with M. tuberculosis H37Rv is given as 0.28 nM (≈ 0.156 ng/mL). Also, in data set [1], the “mean log10 (CFUs in the lungs)” value is given as 4.55 log10.

The values above are taken from US11918575B2, “PZA and cytochrome Bc1 inhibitor combination treatment” (priority 2017, dated 2024).
